From US20030130203A1, “Medicament for combating respiratory depression” (priority 2000, published 2003)

System: awake male Sprague Dawley rats
Assay: Measurement of respiratory rate on the awake rat
Format: in vivo
Conditions: i.v., measured immediately and up to 15 min
Procedure: Measurement of Respiratory Rate on the Awake Rat
To study the respiratory rate, awake male Sprague Dawley rats (Janvier, France) weighing 190 to 315 g were immobilized in Plexiglas tubes. For intravenous administration of the medicament solutions, the rats were each provided with a catheter in the caudal vein. The respiratory rate of the rats was measured via a water-filled balloon catheter located laterally between the rat and the Plexiglas tube. The balloon catheter was connected to a pressure sensor and a high-speed chart recorder (Gould, Dietzenbach).
After an equilibration period of 30 minutes, a baseline value for the respiratory rate was determined. The appropriate active ingredient solution was then administered intravenously and the respiratory rate was measured immediately and after 1, 2, 5, 10 and 15 minutes. Each rat received a single administration per day.

Row | SMILES | respiratory rate (10 mg/kg morphine only in 0.9% saline) | respiratory rate (0.215 mg/kg montirelin together with 10 mg/kg morphine in 0.9% saline)
1 | CN1CC[C@]23c4c5ccc(O)c4O[C@H]2[C@@H](O)C=C[C@H]3[C@H]1C5 [Comparative Example 1, morphine] | marked decrease in respiratory rate | 
2 | C[C@H]1SC[C@@H](C(=O)N[C@H](Cc2c[nH]cn2)C(=O)N2CCC[C@H]2C(N)=O)NC1=O [Example 1, montirelin] |  | no decrease in respiratory rate
